The values below come from patent publication US20140057788A1, “METHODS OF INHIBITING ETHYLENE RESPONSES IN PLANTS USING DICYCLOPROPENE COMPOUNDS” (North Carolina State University, priority 2007, published 2014).

The subject of one data set is pea plants. Briefly: Effect on etiolated pea plant growth in the presence of ethylene. Format: in vivo. To be noted: pea plants grown in the presence of 1 ppm of ethylene, FIG. 1. From the text:
FIG. 1. Effect of 1,6-dicyclopropenyl-hexane on etiolated plea plant growth.

The test system of a further data set is bananas. Briefly: Protection of bananas from ethylene responses. It is filed as in vivo, banana.
A further data set can be described thus: Volatility. Format: physicochemical.
The test system of the next data set is ethylene responses. Briefly: Anti-ethylene activity when applied as a gas. It is filed as in vivo.

SMILES strings stand for the structures.

As to `C1=C(CCCCCCC2=CC2)C1` [1,6-dicyclopropenyl-hexane], the “anti-ethylene activity (pea plant growth)” value with pea plants was “significant anti-ethylene activity”. In addition, the “duration of protection from ethylene responses” value in the data set with bananas is “at least 42 days”. Besides, the volatility entry in “Volatility” is “volatile”. This compound also gave an active concentration in the data set on ethylene responses (applied as a gas) of 0.3 nL L^−1. Further, in the data set with ethylene responses (in vivo), the “efficiency at different temperatures” value is “work efficiently at different temperatures”.
